The source of these data is patent EP1832576A1, “4-Biarylyl-1-phenolyzetidin-2-ones” (Microbia Inc., priority 2003, dated 2005).

Molecules are shown by their SMILES.

By inhibition is commonly meant the percentage by which the read-out fell short of the control. Low readings indicate little suppression, high ones strong suppression.

The subject of the assay is cholesterol absorption from the intestine. Put plainly: In Vivo Assay of Hypolipidemic Agents using the Rat Cholesterol Absorption Model. Conditions: po, 3H levels in serum three hours after 3H-cholesterol; for inhibition at 1 mg/kg: versus vehicle only control. Details: species or system Female Sprague-Dawley rats. The protocol: In Vivo Assay of Hypolipidemic Agents using the Rat Cholesterol Absorption Model. This model is based on models described by Burnett et al (2002), Bioorg. Med. Chem. Lett. 2002 Feb 11;12(3):315-8 and J. Lipid Res. 1999 Oct;40(10):1747-57. Female Sprague-Dawley rats weighing 150-250g are separated into […] and fasted overnight. The animals (4-6/group) are dosed perorally with 300µL test compounds in olive oil or suitable vehicle. Thirty minutes later, 3-5 microCuries ^3H-cholesterol per rat are delivered perorally in 300 µL olive oil. After three hours, 200 µL serum is collected, vortexed with scintillation fluid, and measured for radioactivity in a scintillation counter. Percent inhibition is defined as 100*(1-Ctest/Cctrl), where Ctest and Cctrl refer to ^3H levels in serum for the test compound and for the vehicle only control, respectively. Percent inhibition values are reported for a fixed dose. The ED50 is the dose at which the half-maximal effect on serum ^3H levels is observed for a given test compound.
Representative compounds of the invention were tested in the Rat Cholesterol Absorption model above.

With `O=C1[C@H](CC[C@H](O)c2ccc(F)cc2)[C@@H](c2ccc(-c3cccc(OC[C@H]4OC(O)[C@H](O)[C@@H](O)[C@@H]4O)c3)cc2)N1c1ccc(F)cc1` (stereo partly drawn) [Example 76, 6-O-(4'-{(2S,3R)-1-(4-Fluorophenyl)-3-[(3S)-3-(4-fluorophenyl)-3-hydroxypropyl]-4-oxoazetidin-2-yl}biphenyl-3-yl)-D-glucopyranose], where the note is “Table 1, perorally”, the inhibition at 1 mg/kg stood at 56%. Turning to `COc1cc(F)cc(-c2ccc([C@@H]3[C@@H](CC[C@H](O)c4ccc(F)cc4)C(=O)N3c3ccc(F)cc3)cc2)c1` [Example 111, (3R,4S)-4-(3'-fluoro-5'-methoxybiphenyl-4-yl)-1-(4-fluorophenyl)-3-[(3S)-3-(4-fluorophenyl)-3-hydroxypropyl]azetidin-2-one], the inhibition at 1 mg/kg (Table 1, perorally) turned out to be 72%.

`O=C1[C@H](CC[C@H](O)c2ccc(F)cc2)[C@@H](c2ccc(-c3cccc(O)c3)cc2)N1c1ccc(F)cc1` [Example 4, (3R,4S)-1-(4-Fluorophenyl)-3-[(3S)-3-(4-fluorophenyl)-3-hydroxypropyl]-4-(3'-hydroxybiphenyl-4-yl)azetidin-2-one] showed an inhibition at 1 mg/kg (Table 1, perorally) of 72%.

`Nc1cccc(-c2ccc([C@@H]3[C@@H](CC[C@H](O)c4ccc(F)cc4)C(=O)N3c3ccc(F)cc3)cc2)c1` [Example 86, (3R,4S)-4-(3'-aminabiphenyl-4-yl)-1-(4-fluorophenyl)-3-[(3S)-3-(4-fluorophenyl)-3-hydroxypropyl]azetidin-2-one] yielded an inhibition at 1 mg/kg (Table 1, perorally) of 35%. On the same count and under the same terms, the figure for `O=C1[C@H](CC[C@H](O)c2ccc(F)cc2)[C@@H](c2ccc(-c3cccc(C[C@@H]4O[C@H](CO)[C@@H](O)[C@H](O)[C@H]4O)c3)cc2)N1c1ccc(F)cc1` [Example 117, 2,6-anhydro-1-deoxy-1-(4'-{(2S,3R)-1-(4-fluorophenyl)-3-[(3S)-3-(4-fluorophenyl)-3-hydroxypropyl]-4-oxoazetidin-2-yl}biphenyl-3-yl)-D-glycero-D-gulo-heptitol] is 26%. The molecule `O=C1[C@H](CC[C@H](O)c2ccc(F)cc2)[C@@H](c2ccc(-c3cccc(O)c3)cc2)N1c1ccccc1` [Example 57, (3R,4S)-3-[(3S)-3-(4-Fluorophenyl)-3-hydroxypropyl]-4-(3'-hydroxybiphenyl-4-yl)-1-phenylazetidin-2-one] displayed an inhibition at 1 mg/kg (Table 2, perorally) of 73%. Consider `CCOc1cccc(-c2ccc([C@@H]3[C@@H](CC[C@H](O)c4ccc(F)cc4)C(=O)N3c3ccc(F)cc3)cc2)c1` [Example 100, (3R,4S)-4-(3'-ethoxybiphenyl-4-yl)-1-(4-fluorophenyl)-3-[(3S)-3-(4-fluorophenyl)-3-hydroxypropyl]azetidin-2-one], for which 1 mg/kg produced 54% inhibition (Table 1, perorally). For `O=C1[C@H](CC[C@H](O)c2ccc(F)cc2)[C@@H](c2ccc(-c3cccc(B(O)O)c3)cc2)N1c1ccc(F)cc1` [Example 115, (4'-{(2S,3R)-1-(4-fluorophenyl)-3-[(3S)-3-(4-fluorophenyl)-3-hydroxypropyl]-4-oxoazetidin-2-yl}biphenyl-3-yl)boronic acid], at 1 mg/kg the inhibition (Table 1, perorally) was 70%. In turn, `O=C1[C@H](CC[C@H](O)c2ccc(F)cc2)[C@@H](c2ccc(-c3ccc(S(=O)(=O)O)cc3)cc2O)N1c1ccccc1` [Example 128, Sodium 4'-{(2S,3R)-3-[(3S)-3-(4-fluorophenyl)-3-hydroxypropyl]-4-oxo-1-phenylazetidin-2-yl}-3'-hydroxybiphenyl-4-sulfonate] registered an inhibition at 1 mg/kg (Table 2, perorally) of 60%. `O=C1[C@H](CC[C@H](O)c2ccc(F)cc2)[C@@H](c2ccc(-c3cccc(O[C@H]4O[C@@H](CO)[C@H](O)[C@@H](O)[C@@H]4O)c3)cc2)N1c1ccc(F)cc1` [Example 95, 4'-{(2S,3R)-1-(4-fluorophenyl)-3-[(3S)-3-(4-fluorophenyl)-3-hydroxypropyl]-4-oxoazetidin-2-yl}biphenyl-3-yl β-L-glucopyranoside] displayed an inhibition at 1 mg/kg (Table 1, perorally) of 57%.

Where the note is “Table 1, footnote 1, perorally, 10 mg/kg”, `O=C1[C@H](CC[C@H](O)c2ccc(F)cc2)[C@@H](c2ccc(-c3cccc([N+](=O)[O-])c3)cc2)N1c1ccc(F)cc1` [Example 23, (3R,4S)-1-(4-fluorophenyl)-3-[(3S)-3-(4-fluorophenyl)-3-hydroxypropyl]-4-(3'-nitrobiphenyl-4-yl)azetidin-2-one] registered an inhibition at 10 mg/kg of 54%. `O=C1[C@H](CC[C@H](O)c2ccc(F)cc2)[C@@H](c2ccc(-c3cccc(P(=O)(O)O)c3)cc2)N1c1ccccc1` [Example 56, (4'-{(2S,3R)-3-[(3S)-3-(4-Fluorophenyl)-3-hydroxypropyl]-4-oxo-1-phenylazetidin-2-yl}biphenyl-3-yl)phosphonic acid]: the inhibition at 1 mg/kg (Table 1, perorally) amounted to 59%.

As to `O=C1[C@H](CC[C@H](O)c2ccc(F)cc2)[C@@H](c2ccc(-c3ccccc3O)cc2)N1c1ccc(F)cc1` [Example 7, (3R,4S)-1-(4-fluorophenyl)-3-[(3S)-3-(4-fluorophenyl)-3-hydroxypropyl]-4-(2'-hydroxybiphenyl-4-yl)azetidin-2-one], 1 mg/kg produced 30% inhibition (Table 1, perorally). `COc1ccc(-c2ccc([C@@H]3[C@@H](CC[C@H](O)c4ccc(F)cc4)C(=O)N3c3ccc(F)cc3)cc2)c(OC)c1` [Example 97, (3R,4S)-4-(2',4'-dimethoxybiphenyl-4-yl)-1-(4-fluorophenyl)-3-[(3S)-3-(4-fluorophenyl)-3-hydroxypropyl]azetidin-2-one] had an inhibition at 1 mg/kg (Table 1, perorally) of 40%. Turning to `Nc1ccc(-c2ccc([C@@H]3[C@@H](CC[C@H](O)c4ccc(F)cc4)C(=O)N3c3ccc(F)cc3)cc2)cc1` [Example 28, (3R,4S)-1-(4-fluorophenyl)-3-[(3S)-3-(4-fluorophenyl)-3-hydroxypropyl]-4-(4'-aminobiphenyl-4-yl)azetidin-2-one], the inhibition at 1 mg/kg (Table 1, perorally) stood at 56%. Where the note is “Table 1, perorally”, `CCCOc1cccc(-c2ccc([C@@H]3[C@@H](CC[C@H](O)c4ccc(F)cc4)C(=O)N3c3ccc(F)cc3)cc2)c1` [Example 103, (3R,4S)-1-(4-fluorophenyl)-3-[(3S)-3-(4-fluorophenyl)-3-hydroxypropyl]-4-(3'-propoxybiphenyl-4-yl)azetidin-2-one] gave an inhibition at 1 mg/kg of 21%.

`O=C1[C@H](CC[C@H](O)c2ccc(F)cc2)[C@@H](c2ccc(-c3cccc(C(F)(F)F)c3)cc2)N1c1ccc(F)cc1` [Example 92, (3R,4S)-1-(4-fluorophenyl)-3-[(3S)-3-(4-fluorophenyl)-3-hydroxypropyl]-4-[3'-(trifluoromethyl)biphenyl-4-yl]azetidin-2-one] came in with an inhibition at 1 mg/kg (Table 1, perorally) of 17%. The same measure, in the same setting: in the case of `O=C(O)[C@@H]1O[C@H](Oc2cccc(-c3ccc([C@@H]4[C@@H](CC[C@H](O)c5ccc(F)cc5)C(=O)N4c4ccc(F)cc4)cc3)c2)[C@@H](O)[C@H](O)[C@H]1O` [Example 20, 4'-{(2S,3R)-1-(4-fluorophenyl)-3-[(3S)-3-(4-fluorophenyl)-3-hydroxypropyl]-4-oxoazetidin-2-yl}biphenyl-3-yl β-L-glucopyranosiduronic acid] it was 59%; in that of `O=Cc1ccc(-c2ccc([C@@H]3[C@@H](CC[C@H](O)c4ccc(F)cc4)C(=O)N3c3ccc(F)cc3)cc2)cc1` [Example 99, 4'-{(2S,3R)-1-(4-fluorophenyl)-3-[(3S)-3-(4-fluorophenyl)-3-hydroxypropyl]-4-oxoazetidin-2-yl}-biphenyl-4-carbaldehyde], 38%.
